The supplement of paper PMC4862054

Legend:
[1] = system: CAL-85-1; conditions: 72 h
Outline: (§1)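 For viability, cells received 2.5 µl CellTiter-Blue for 2 h at 37 °C and fluorescence was read at 560/590 nm. Before this, breast cancer cell lines in 20 µl suspension had been incubated for 72 h on 384-well plates pre-loaded with compound dissolved in 5 µl medium. EC50 was obtained from a percent-inhibition dose-response fit censored at the highest concentration, after normalisation of each plate to vehicle and a positive kill control; rows with a zero drug sensitivity score were discarded.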

[2] = system: MDA-MB-453; conditions: 72 h
Outline: as §1

[3] = system: DU-4475; conditions: 72 h
Outline: as §1

[4] = system: CAL-51; conditions: 72 h
Outline: as §1

[5] = system: CAL-148; conditions: 72 h
Outline: as §1

[6] = system: HDQ-P1; conditions: 72 h
Outline: as §1

[7] = system: BT-474; conditions: 72 h
Outline: as §1

[8] = system: CAL-85-1; conditions: 72 h; remark: listed apart in the source
Experimental: (§2)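 Drug sensitivity and resistance testing (DSRT) of breast cancer cell lines in 384-well plates, 5 concentrations in 10-fold dilutions over a compound-specific 10,000-fold range. After 72 h, cytotoxicity was read by CellTox Green fluorescence and viability by CellTiter-Glo luminescence (multiplexed), normalised to DMSO and benzethonium chloride controls. EC50 is the inflection point of the fitted dose-response curve (bottom asymptote free, so it can be relative for partial curves) and is censored at the highest tested concentration. Rows with DSS 0 (no meaningful response) were excluded.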

[9] = system: MFM-223; conditions: 72 h
Experimental: as §2

[10] = system: DU-4475; conditions: 72 h; remark: listed apart in the source
Experimental: as §2

[11] = system: CAL-51; conditions: 72 h; remark: listed apart in the source
Experimental: as §2

[12] = system: MCF-10A; conditions: 72 h
Experimental: as §2

[13] = system: MDA-MB-468; conditions: 72 h
Experimental: as §2

[14] = system: BT-474; conditions: 72 h; remark: listed apart in the source
Experimental: as §2

[15] = system: HCC1937; conditions: 72 h
Experimental: as §2

[16] = system: MDA-MB-231; conditions: 72 h
Experimental: as §2

[17] = system: HDQ-P1; conditions: 72 h; remark: listed apart in the source
Experimental: as §2

[18] = system: CAL-148; conditions: 72 h; remark: listed apart in the source
Experimental: as §2

[19] = system: BT-549; conditions: 72 h
Experimental: as §2

[20] = system: MDA-MB-436; conditions: 72 h
Experimental: as §2

[21] = system: Hs578T; conditions: 72 h
Experimental: as §2

[22] = system: CAL-85-1; experiment: normalised viability (% of control), CellTiter-Blue; higher = more viable cells (about 100 = DMSO control); conditions: incubation time: 72 h
Outline: (§3)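 Breast cancer cell lines in 20 µl suspension were seeded onto 384-well plates pre-loaded with compound dissolved in 5 µl medium, then incubated 72 h. CellTiter-Blue reagent (2.5 µl) was added for 2 h at 37 °C and fluorescence read at 560/590 nm. Each plate was normalised to vehicle (100) and a positive kill control (0), with Z'-factor quality control. The value is normalised viability at one listed concentration of the series.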

[23] = system: MDA-MB-453; experiment: as above; conditions: incubation time: 72 h
Outline: as §3

[24] = system: DU-4475; experiment: as above; conditions: incubation time: 72 h
Outline: as §3

[25] = system: CAL-51; experiment: as above; conditions: incubation time: 72 h
Outline: as §3

[26] = system: CAL-148; experiment: as above; conditions: incubation time: 72 h
Outline: as §3

[27] = system: HDQ-P1; experiment: as above; conditions: incubation time: 72 h
Outline: as §3

[28] = system: HCC1599; conditions: 72 h
Experimental: as §2

[29] = system: CAL-120; conditions: 72 h
Experimental: as §2

Compound: COC1=C2C[C@@H](C)C[C@H](OC)[C@H](O)[C@@H](C)/C=C(\C)[C@H](OC(N)=O)[C@@H](OC)/C=C\C=C(/C)C(=O)NC(=CC1=O)C2=O [Geldanamycin]
- EC50, CellTiter-Blue viability [1]: 270 nM
- EC50, CellTiter-Blue viability [2]: 96.5 nM
- EC50, CellTiter-Blue viability [3]: 137 nM
- EC50, CellTiter-Blue viability [4]: 535 nM
- EC50, CellTiter-Blue viability [5]: 223 nM
- EC50, CellTiter-Blue viability [6]: 81.4 nM
- EC50, CellTiter-Blue viability [7]: 62 nM
- EC50, CellTox Green [8]: 2570 nM
- EC50, CellTox Green [9]: 8020 nM
- EC50, CellTox Green [10]: 4720 nM
- EC50, CellTox Green [11]: 8440 nM
- EC50, CellTox Green [12]: 2370 nM
- EC50, CellTox Green [13]: 59.8 nM
- EC50, CellTox Green [14]: 6830 nM
- EC50, CellTox Green [15]: 2450 nM
- EC50, CellTox Green [16]: 4120 nM

Compound: CS(=O)(=O)CCNCc1ccc(-c2ccc3ncnc(Nc4ccc(OCc5cccc(F)c5)c(Cl)c4)c3c2)o1 [Lapatinib]
- EC50, CellTiter-Blue viability [1]: 3740 nM
- EC50, CellTiter-Blue viability [2]: 75.1 nM
- EC50, CellTiter-Blue viability [7]: 137 nM
- EC50, CellTox Green [12]: 678 nM

Compound: Cn1cnc2c(F)c(Nc3ccc(Br)cc3F)c(C(=O)NOCCO)cc21 [MEK-162]
- EC50, CellTiter-Blue viability [3]: 38.9 nM
- EC50, CellTox Green [10]: 508 nM
- EC50, CellTox Green [17]: 123 nM

Compound: CCOc1cc2ncc(C#N)c(Nc3ccc(OCc4ccccn4)c(Cl)c3)c2cc1NC(=O)/C=C/CN(C)C [Neratinib]
- EC50, CellTiter-Blue viability [2]: 12.5 nM
- EC50, CellTox Green [8]: 211 nM
- EC50, CellTox Green [18]: 791 nM
- EC50, CellTox Green [13]: 149 nM

Compound: COc1ccc(C2=N[C@@H](c3ccc(Cl)cc3)[C@@H](c3ccc(Cl)cc3)N2C(=O)N2CCNC(=O)C2)c(OC(C)C)c1 [Nutlin-3]
- EC50, CellTiter-Blue viability [3]: 6310 nM
- EC50, CellTiter-Blue viability [4]: 2750 nM
- EC50, CellTox Green [11]: 252 nM
- EC50, CellTox Green [18]: 9050 nM

Compound: COC1=CC(c2cc3ccccc3[nH]2)=N/C1=C\c1[nH]c(C)cc1C [Obatoclax]
- EC50, CellTiter-Blue viability [1]: 982 nM
- EC50, CellTiter-Blue viability [2]: 632 nM
- EC50, CellTiter-Blue viability [3]: 6650 nM
- EC50, CellTiter-Blue viability [4]: 2060 nM
- EC50, CellTiter-Blue viability [5]: 3150 nM
- EC50, CellTiter-Blue viability [6]: 95.6 nM
- EC50, CellTiter-Blue viability [7]: 124 nM
- EC50, CellTox Green [11]: 2640 nM
- EC50, CellTox Green [16]: 760 nM

Compound: COC(=O)C[C@](O)(CCCC(C)(C)O)C(=O)O[C@@H]1C(OC)=C[C@]23CCCN2CCc2cc4c(cc2[C@H]13)OCO4 [Omacetaxine]
- EC50, CellTiter-Blue viability [1]: 17.4 nM
- EC50, CellTiter-Blue viability [2]: 24.7 nM
- EC50, CellTiter-Blue viability [3]: 5.48 nM
- EC50, CellTiter-Blue viability [4]: 21.5 nM
- EC50, CellTiter-Blue viability [5]: 13.7 nM
- EC50, CellTiter-Blue viability [6]: 13.8 nM
- EC50, CellTiter-Blue viability [7]: 92.8 nM
- EC50, CellTox Green [19]: 260 nM
- EC50, CellTox Green [8]: 41.7 nM
- EC50, CellTox Green [20]: 7440 nM
- EC50, CellTox Green [9]: 63.7 nM
- EC50, CellTox Green [18]: 2670 nM
- EC50, CellTox Green [21]: 40.8 nM
- EC50, CellTox Green [12]: 770 nM
- EC50, CellTox Green [17]: 689 nM
- EC50, CellTox Green [13]: 388 nM
- EC50, CellTox Green [14]: 5890 nM
- EC50, CellTox Green [16]: 620 nM

Compound: CC(=O)O[C@H]1C(=O)[C@@]2(C)[C@H]([C@H](OC(=O)c3ccccc3)[C@]3(O)C[C@H](OC(=O)[C@H](O)[C@@H](NC(=O)c4ccccc4)c4ccccc4)C(C)=C1C3(C)C)[C@]1(OC(C)=O)CO[C@@H]1C[C@@H]2O [Paclitaxel]
- EC50, CellTiter-Blue viability [1]: 7.28 nM
- EC50, CellTiter-Blue viability [2]: 4.03 nM
- EC50, CellTiter-Blue viability [3]: 18.6 nM
- EC50, CellTiter-Blue viability [4]: 12.2 nM
- EC50, CellTiter-Blue viability [5]: 6.75 nM
- EC50, CellTiter-Blue viability [6]: 1.26 nM
- EC50, CellTiter-Blue viability [7]: 8.24 nM
- EC50, CellTox Green [19]: 6.52 nM
- EC50, CellTox Green [8]: 2.42 nM
- EC50, CellTox Green [20]: 66.5 nM
- EC50, CellTox Green [9]: 3.4 nM
- EC50, CellTox Green [11]: 2.93 nM
- EC50, CellTox Green [18]: 1.16 nM
- EC50, CellTox Green [21]: 4.11 nM
- EC50, CellTox Green [12]: 16.8 nM
- EC50, CellTox Green [13]: 4.52 nM
- EC50, CellTox Green [14]: 11.5 nM
- EC50, CellTox Green [16]: 8.57 nM

Compound: CC(C)(C)c1cc(NC(=O)Nc2ccc(-c3cn4c(n3)sc3cc(OCCN5CCOCC5)ccc34)cc2)no1 [Quizartinib] (1000 nM)
- normalised viability [22]: 89.6%
- normalised viability [23]: 60.2%
- normalised viability [24]: 112%
- normalised viability [25]: 103%
- normalised viability [26]: 91.3%
- normalised viability [27]: 111%

Compound: O=C(c1ccc(OCCN2CCCCC2)cc1)c1c(-c2ccc(O)cc2)sc2cc(O)ccc12 [Raloxifene]
- EC50, CellTiter-Blue viability [2]: 9230 nM
- EC50, CellTox Green [17]: > 10000 nM
- EC50, CellTox Green [28]: > 10000 nM

Compound: O=C(c1ccc(OCCN2CCCCC2)cc1)c1c(-c2ccc(O)cc2)sc2cc(O)ccc12 [Raloxifene] (10000 nM)
- normalised viability [22]: 98.6%
- normalised viability [23]: 45.7%
- normalised viability [24]: 113%
- normalised viability [25]: 105%
- normalised viability [26]: 125%
- normalised viability [27]: 105%

Compound: Cn1c(=O)c(F)c(Nc2ccc(I)cc2F)c2c(=O)n(C[C@@H](O)CO)cnc21 [TAK-733]
- EC50, CellTiter-Blue viability [1]: 68.5 nM
- EC50, CellTiter-Blue viability [2]: 249 nM
- EC50, CellTiter-Blue viability [3]: 3.59 nM
- EC50, CellTiter-Blue viability [4]: 102 nM
- EC50, CellTiter-Blue viability [6]: 161 nM
- EC50, CellTox Green [8]: 181 nM
- EC50, CellTox Green [10]: 29.1 nM
- EC50, CellTox Green [29]: > 1000 nM
- EC50, CellTox Green [16]: 54.6 nM

Compound: Cn1c(=O)c(F)c(Nc2ccc(I)cc2F)c2c(=O)n(C[C@@H](O)CO)cnc21 [TAK-733] (1000 nM)
- normalised viability [22]: 39.7%
- normalised viability [23]: 51.2%
- normalised viability [24]: 0.83%
- normalised viability [25]: 66%
- normalised viability [26]: 92.8%
- normalised viability [27]: 60%

Compound: CCS(=O)(=O)c1cccc(-c2cc(C(=O)NC3CCN(C)CC3)c(C)c3[nH]c4ncc(C)cc4c23)c1 [TAK-901]
- EC50, CellTiter-Blue viability [1]: 344 nM
- EC50, CellTiter-Blue viability [2]: 12.8 nM
- EC50, CellTiter-Blue viability [3]: 806 nM
- EC50, CellTiter-Blue viability [4]: 179 nM
- EC50, CellTiter-Blue viability [6]: 260 nM
- EC50, CellTox Green [19]: 871 nM
- EC50, CellTox Green [16]: 184 nM

Compound: CCS(=O)(=O)c1cccc(-c2cc(C(=O)NC3CCN(C)CC3)c(C)c3[nH]c4ncc(C)cc4c23)c1 [TAK-901] (1000 nM)
- normalised viability [22]: 30.9%
- normalised viability [23]: 40.2%
- normalised viability [24]: 41.2%
- normalised viability [25]: 23.8%
- normalised viability [26]: 105%
- normalised viability [27]: 16.6%

Compound: Cc1cc(C(C)Nc2ccccc2)c2nc(N3CCOCC3)cc(=O)n2c1 (centres undefined) [TGX-221]
- EC50, CellTox Green [17]: 1 nM
- EC50, CellTox Green [16]: > 10000 nM

Compound: CCCC(CCC)C(=O)O [Valproic acid] (10000 nM)
- normalised viability [22]: 86.8%
- normalised viability [23]: 106%
- normalised viability [24]: 82.9%
- normalised viability [25]: 91.4%
- normalised viability [26]: 91.5%
- normalised viability [27]: 125%

Compound: FC(F)c1nc2ccccc2n1-c1nc(N2CCOCC2)nc(N2CCOCC2)n1 [ZSTK474]
- EC50, CellTox Green [9]: 1780 nM
- EC50, CellTox Green [14]: > 10000 nM
